Laboratory results published in ChEMBL document CHEMBL1149100, “New 2,4-diamino-5-(2',5'-substituted benzyl)pyrimidines as potential drugs against opportunistic infections of AIDS and other immune disorders. Synthesis and species-dependent antifolate activity” (J Med Chem, 2004).
In brackets after ≈: the same amount, converted by molar mass.

Legend:
[1] = target: T1, Bifunctional dihydrofolate reductase-thymidylate synthase (Toxoplasma gondii, UniProt Q07422)
T1 sequence (Q07422 whole entry): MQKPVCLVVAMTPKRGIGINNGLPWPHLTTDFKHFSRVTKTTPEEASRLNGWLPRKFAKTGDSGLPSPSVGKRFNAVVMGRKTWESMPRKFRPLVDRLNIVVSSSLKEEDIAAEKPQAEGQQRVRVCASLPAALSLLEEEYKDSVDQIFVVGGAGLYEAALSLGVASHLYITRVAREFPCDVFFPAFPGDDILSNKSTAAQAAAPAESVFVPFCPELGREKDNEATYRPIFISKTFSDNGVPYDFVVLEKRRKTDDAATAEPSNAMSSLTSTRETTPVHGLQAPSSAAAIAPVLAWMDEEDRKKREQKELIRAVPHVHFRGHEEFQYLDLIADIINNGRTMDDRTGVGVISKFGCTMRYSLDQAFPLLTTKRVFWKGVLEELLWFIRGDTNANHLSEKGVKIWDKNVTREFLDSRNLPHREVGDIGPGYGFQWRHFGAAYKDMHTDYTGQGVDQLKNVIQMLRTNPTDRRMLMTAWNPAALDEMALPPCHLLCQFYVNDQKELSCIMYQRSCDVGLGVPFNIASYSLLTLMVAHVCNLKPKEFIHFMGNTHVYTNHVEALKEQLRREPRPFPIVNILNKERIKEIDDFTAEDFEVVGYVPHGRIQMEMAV

[2] = test system: Mycobacterium avium; assay: Minimum inhibitory concentration required against Mycobacterium avium isolate from patient number MAC100; format: functional
[3] = test system: Mycobacterium avium; assay: Minimum inhibitory concentration required against Mycobacterium avium isolate from patient number MAC108; format: functional
[4] = test system: Mycobacterium avium; assay: Minimum inhibitory concentration required against Mycobacterium avium isolate from patient number MAC109; format: functional
[5] = test system: Mycobacterium avium; assay: Minimum inhibitory concentration required against Mycobacterium avium isolate from patient number MAC116; format: functional
[6] = test system: Mycobacterium avium; assay: Minimum inhibitory concentration required against Mycobacterium avium isolate from patient number MAC101; format: functional
[7] = target: T2, Dihydrofolate reductase (Rattus norvegicus, UniProt Q920D2)
T2 sequence (Q920D2 whole entry): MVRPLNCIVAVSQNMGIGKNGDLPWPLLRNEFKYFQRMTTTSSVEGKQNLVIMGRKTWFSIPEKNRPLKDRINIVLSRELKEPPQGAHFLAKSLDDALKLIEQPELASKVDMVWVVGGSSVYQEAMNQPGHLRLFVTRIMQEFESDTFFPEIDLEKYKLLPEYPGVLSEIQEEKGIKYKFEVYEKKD
Description: Inhibitory concentration against dihydrofolate reductase of rat liver

[8] = target: T3, Dihydrofolate reductase (Mycobacterium avium, UniProt O30463)
T3 sequence (O30463 whole entry): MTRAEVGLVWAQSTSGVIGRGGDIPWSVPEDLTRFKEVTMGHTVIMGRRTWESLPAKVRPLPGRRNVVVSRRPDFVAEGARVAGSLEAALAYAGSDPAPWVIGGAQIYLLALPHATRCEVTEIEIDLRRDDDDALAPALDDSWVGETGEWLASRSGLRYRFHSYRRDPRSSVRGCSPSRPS
Description: Inhibitory concentration against dihydrofolate reductase of Mycobacterium avium

[9] = target: T4, Dihydrofolate reductase (Pneumocystis carinii, UniProt P16184)
T4 sequence (P16184 whole entry): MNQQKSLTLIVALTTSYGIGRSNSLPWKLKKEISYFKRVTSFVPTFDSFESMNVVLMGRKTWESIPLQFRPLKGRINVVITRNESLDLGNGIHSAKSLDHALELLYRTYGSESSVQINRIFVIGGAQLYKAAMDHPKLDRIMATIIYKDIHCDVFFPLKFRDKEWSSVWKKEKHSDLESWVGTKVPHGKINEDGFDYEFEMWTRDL
Description: Inhibitory concentration against dihydrofolate reductace enzyme of Pneumocystis carinii

[10] = test system: Mycobacterium avium; assay: Minimum inhibitory concentration required against Mycobacterium avium isolate from patient number MAC16; format: functional
[11] = test system: Mycobacterium avium; assay: Concentration of compound required against Mycobacterium avium; Range is 2-16 ug/mL; format: functional, organism-based
[12] = test system: Mycobacterium avium; assay: Minimum inhibitory concentration required for 50 percent inhibition of Mycobacterium avium isolate; format: functional
[13] = test system: Mycobacterium avium; assay: Minimum inhibitory concentration required for 90 percent inhibition of Mycobacterium avium isolate; format: functional
[14] = test system: Mycobacterium avium; assay: Concentration of compound required against Mycobacterium avium; Range is 2-32; format: functional, organism-based
[15] = test system: Mycobacterium avium; assay: Concentration of compound required against Mycobacterium avium; Range is 4-32; format: functional, organism-based
[16] = test system: Mycobacterium avium; assay: Concentration of compound required against Mycobacterium aviumRange is 2-32; format: functional, organism-based

Row | SMILES | IC50 [1] [µM] | MIC [2] [mg/L] | MIC [3] [mg/L] | MIC [4] [mg/L] | MIC [5] [mg/L] | MIC [6] [mg/L] | IC50 [7] [µM] | IC50 [8] [µM] | IC50 [9] [µM] | MIC [10] [mg/L] | Concentration [11] [µg/mL] | MIC50 [12] [mg/L] | MIC90 [13] [mg/L] | Concentration [14] [µg/mL] | Concentration [15] [µg/mL] | Concentration [16] [µg/mL]
1 | COc1ccc(C#Cc2ccccc2C(=O)O)cc1Cc1cnc(N)nc1N | 1.9 | > 64 | > 64 | > 64 | > 64 | > 64 | 25 | 0.1 | 4.1 |  |  |  |  |  |  | 
2 | CCCCCCCOc1ccc(OC)c(Cc2cnc(N)nc2N)c1 |  | 8 (≈ 23.2 µM) | 8 (≈ 23.2 µM) | 8 (≈ 23.2 µM) |  | 4 (≈ 11.6 µM) |  |  |  | 8 (≈ 23.2 µM) | 16 | 8 (≈ 23.2 µM) | 8 (≈ 23.2 µM) |  |  | 
3 | COc1ccc(OCCCC(=O)O)cc1Cc1cnc(N)nc1N |  | 16 (≈ 48.1 µM) | 16 (≈ 48.1 µM) | 32 (≈ 96.3 µM) |  | 16 (≈ 48.1 µM) |  |  |  | 32 (≈ 96.3 µM) |  |  |  |  |  | 
4 | COc1ccc(CCCOc2ccccc2C(=O)O)cc1Cc1cnc(N)nc1N | 0.71 |  |  |  |  |  | 25 | 0.31 | 7.8 |  |  |  |  |  |  | 
5 | COc1ccc(CCc2ccc(C(=O)O)cc2)cc1Cc1cnc(N)nc1N | 1.5 |  |  |  |  |  | 13 | 0.025 | 7.1 |  |  |  |  |  |  | 
6 | COc1ccc(C#CCCCCC(=O)O)cc1Cc1cnc(N)nc1N |  | 4 (≈ 11.3 µM) | > 32 | 4 (≈ 11.3 µM) |  | 2 (≈ 5.64 µM) |  |  |  | 2 (≈ 5.64 µM) |  | 8 (≈ 22.6 µM) | 16 (≈ 45.1 µM) | 32 |  | 
7 | COc1ccc(C#CCCC(=O)O)cc1Cc1cnc(N)nc1N |  | 8 (≈ 24.5 µM) | 16 (≈ 49 µM) | 16 (≈ 49 µM) |  | 8 (≈ 24.5 µM) |  |  |  | 16 (≈ 49 µM) |  | 8 (≈ 24.5 µM) | 16 (≈ 49 µM) |  | 32 | 
8 | COc1ccc(C#Cc2ccc(C(=O)O)cc2)cc1Cc1cnc(N)nc1N | 0.34 | > 64 | > 64 | > 64 |  | > 64 | 8.2 | 0.0037 | 1.3 | > 64 |  |  |  |  |  | 
9 | COc1ccc(OCc2cccc(C(=O)O)c2)cc1Cc1cnc(N)nc1N |  | > 32 | > 32 | > 32 |  | > 32 |  |  |  | > 32 |  |  |  |  |  | 
10 | COc1ccc(OCCCCCC(=O)O)cc1Cc1cnc(N)nc1N |  | 16 (≈ 44.4 µM) | 32 (≈ 88.8 µM) | 8 (≈ 22.2 µM) |  | 8 (≈ 22.2 µM) |  |  |  | 8 (≈ 22.2 µM) |  | 4 (≈ 11.1 µM) | 32 (≈ 88.8 µM) |  | 32 | 
11 | COc1ccc(C#Cc2cccc(C(=O)O)c2)cc1Cc1cnc(N)nc1N | 0.0055 | > 64 | > 64 | > 64 |  | > 64 | 0.65 | 0.0015 | 0.023 | > 64 |  |  |  |  |  | 
12 | COc1ccc(C#CCOc2cccc(C(=O)O)c2)cc1Cc1cnc(N)nc1N |  | > 32 | > 32 | > 32 |  | > 32 |  |  |  | > 32 |  |  |  |  |  | 
13 | COc1ccc(CCCCCCC(=O)O)cc1Cc1cnc(N)nc1N |  | > 32 | > 32 | 32 (≈ 89.3 µM) |  | 32 (≈ 89.3 µM) |  |  |  | 16 (≈ 44.6 µM) |  |  |  |  |  | 
14 | Cc1ccc(Cl)cc1Cc1cnc2nc(N)nc(N)c2c1C |  |  |  |  |  |  |  | 0.00019 |  |  |  |  |  |  |  | 
15 | CCCCCCOc1ccc(OC)c(Cc2cnc(N)nc2N)c1 |  | 32 (≈ 96.8 µM) | 32 (≈ 96.8 µM) | 32 (≈ 96.8 µM) |  | 32 (≈ 96.8 µM) |  |  |  | 32 (≈ 96.8 µM) |  |  |  |  |  | 
16 | COc1ccc(OCc2ccc(C(=O)O)cc2)cc1Cc1cnc(N)nc1N |  | > 32 | > 32 | > 32 |  | > 32 |  |  |  | > 32 |  |  |  |  |  | 
17 | COc1ccc(C#CCOc2ccccc2C(=O)O)cc1Cc1cnc(N)nc1N |  | > 32 | > 32 | > 32 |  | > 32 |  |  |  | > 32 |  |  |  |  |  | 
18 | COc1ccc(CCCCCC(=O)O)cc1Cc1cnc(N)nc1N |  | 32 (≈ 92.9 µM) | > 32 | 32 (≈ 92.9 µM) |  | 16 (≈ 46.5 µM) |  |  |  | 32 (≈ 92.9 µM) |  |  |  |  |  | 
19 | COc1ccc(CCCCC(=O)O)cc1Cc1cnc(N)nc1N |  | > 32 | > 32 | > 32 | > 32 | > 32 |  |  |  |  |  |  |  |  |  | 
20 | COc1ccc(OCCCCCCCC(=O)O)cc1Cc1cnc(N)nc1N |  | 8 (≈ 20.6 µM) | 32 (≈ 82.4 µM) | 2 (≈ 5.15 µM) |  | 4 (≈ 10.3 µM) |  |  |  | 2 (≈ 5.15 µM) |  | 4 (≈ 10.3 µM) | 8 (≈ 20.6 µM) | 32 |  | 
21 | COc1ccc(OCCCCCCCCC(=O)O)cc1Cc1cnc(N)nc1N |  | 8 (≈ 19.9 µM) | > 32 | 4 (≈ 9.94 µM) |  | 2 (≈ 4.97 µM) |  |  |  | 2 (≈ 4.97 µM) | 16 | 4 (≈ 9.94 µM) | 8 (≈ 19.9 µM) |  |  | 
22 | COc1cc(Cc2cnc3nc(N)nc(N)c3c2C)cc(OC)c1 |  |  |  |  |  |  |  | 0.00064 |  |  |  |  |  |  |  | 
23 | COc1ccc(C#CCCCC(=O)O)cc1Cc1cnc(N)nc1N |  | 8 (≈ 23.5 µM) | 32 (≈ 94 µM) | 16 (≈ 47 µM) |  | 4 (≈ 11.8 µM) |  |  |  | 8 (≈ 23.5 µM) |  | 8 (≈ 23.5 µM) | 16 (≈ 47 µM) |  | 32 | 
24 | COc1ccc(OCCCCC(=O)O)cc1Cc1cnc(N)nc1N |  | 16 (≈ 46.2 µM) | > 32 | 16 (≈ 46.2 µM) |  | 16 (≈ 46.2 µM) |  |  |  | 16 (≈ 46.2 µM) |  | 16 (≈ 46.2 µM) | 32 (≈ 92.4 µM) |  |  | 
25 | COc1ccc(CCCOc2cccc(C(=O)O)c2)cc1Cc1cnc(N)nc1N | 0.21 |  |  |  |  |  | 4 | 0.025 | 1.1 |  |  |  |  |  |  | 
26 | COc1ccc(/C=C/COc2ccccc2C(=O)O)cc1Cc1cnc(N)nc1N | 2.5 |  |  |  |  |  | 6.4 | 0.38 | 8.6 |  |  |  |  |  |  | 
27 | COc1ccc(OCCCCCCC(=O)O)cc1Cc1cnc(N)nc1N |  | 16 (≈ 42.7 µM) | > 32 | 8 (≈ 21.4 µM) |  | 8 (≈ 21.4 µM) |  |  |  | 16 (≈ 42.7 µM) |  | 4 (≈ 10.7 µM) | 32 (≈ 85.5 µM) |  |  | 32
